Values after ≈ are worked out from the molar mass of the structure shown.
Experiment: Solubility of the heterocyclic base (adenine) in reaction solvents
Type: physicochemical

Solubility at 150° C. (solvent DEF): 13.9 mg/mL (≈ 103 mM) | Solubiity at RT (solvent DEF): 1.36 mg/mL | Solubility at 150° C. (solvent DMA): 37.0 mg/mL (≈ 274 mM) | Solubiity at RT (solvent DMA): 4.00 mg/mL | Solubility at 150° C. (solvent DMF): 29.0 mg/mL (≈ 215 mM) | Solubiity at RT (solvent DMF): 2.90 mg/mL
SMILES: Nc1ncnc2nc[nH]c12 [adenine]

— patent publication US20060135768A1, “Synthesis for hydroxyalkylated heterocyclic bases” (RIBAPHARM INC., priority 2002, published 2006)
